Results taken from patent US4071528A, “Certain thiazolidine and tetrahydrothiazine compounds” (May & Baker Limited, priority 1975, dated 1978).
Where two headings read alike, the source gives them in different places.

Tests used:
Mycosphaerella pinodes = assay: Minimum effective concentration totally inhibiting fungal growth, Mycosphaerella pinodes, potato dextrose agar tubes; assay type: cell-based; settings: Didymella pinodes, 48 h; total inhibition of fungal growth; tested at 50, 10 or 2 ppm; 25° C, 2 days
Method: Test tubes containing 4.0 ml of molten potato dextrose agar at about 50° C were inoculated with 0.5 ml of suspension of test compound and 0.5 ml of fungal suspension delivered from a sterile syringe to give a final concentration of each compound of 50, 10 or 2 ppm. Two replicate tubes were inoculated with each fungal species. After the addition of test compounds and fungal inoculum to the molten medium the tubes were sloped and the agar was allowed to set. The tubes were incubated at 25° C for either 2 days (Mycosphaerella pinodes) or 3 days (Helminthosporium avenae). […] The suspensions of test compounds were prepared by grinding 0.025 g of test compound with sterile distilled water containing 0.1 ml of 0.1% Texofor FX170 wetting agent, followed by dilution to the concentration desired. The inoculum of Mycosphaerella pinodes was prepared as follows: A one to two week old culture on Coon's agar on plates was scraped off with a glass rod and sterile distilled water and filtered through muslin. The filtrate, containing the spores, was used for inoculation.

Haemonchus contortus [1] = assay: B.1 Activity against adult Haemonchus contortus in lambs; assay type: in vivo; settings: s.c. 10 mg/kg (methanesulphonate salt), adult stage
Method: (§1) B.1. Activity against Haemonchus contortus and Nematodirus spathiger in their adult stages in lambs.
(§2) Worm-free, 8-10 week old lambs were each infected with 5000 H. contortus and 15000 N. spathiger larvae. Approximately 3 weeks later, doses of test compound A were administered to each group of 2 animals, by the subcutaneous route, one group of 2 animals being left untreated as a control.
(§3) Individual faecal H. contortus egg counts were determined 1 day before and 5- 7 days after treatment, when all the lambs were killed for post-mortem worm counts. The activities, expressed in terms of the percentage reduction in mean worm burden of each worm species compared with the untreated control group, are given below.

Cooperia oncophora = assay: C.2 Activity against Cooperia oncophora in mature and immature stages in calves; assay type: in vivo; settings: s.c. 25 mg/kg (methanesulphonate salt)
Method: (§4) C.2. Activity against Cooperia oncophora, Ostertagia ostertagi, and Dictyocaulus viviparus in their mature and immature stages in calves. Worm free, 6-7 week old calves were each infected with 15,000 C. oncophora, 15,000 O. ostertagi and 3,000 D. viviparus larvae. Groups of two animals each were treated subcutaneously with test compound A at a dose of 25 mg/kg animal body weight at 7 days or 25 days after infection, one group of two animals being left untreated as a control. All calves were killed approximately 28 days after infection and were examined for residual worm burdens. The percentage reduction in mean worm burden of each worm species compared with the untreated control group is given below in Table V.

Nematodirus spathiger [2] = assay: B.1 Activity against adult Nematodirus spathiger in lambs; assay type: in vivo; settings: s.c. 10 mg/kg (methanesulphonate salt), adult stage
Method: as §1, §2, §3

Ostertagia circumcincta = assay: B.2 Activity against Ostertagia circumcincta in 4th larval and adult stages in lambs; assay type: in vivo; settings: oral 4 mg/kg
Method: (§5) B.2. Activity against Haemonchus contortus, Ostertagia circumcincta, Trichostrongylus axei, Trichostrongylus colubriformis and Nematodirus spathiger in their 4th larval and adult stages in lambs.
(§6) Worm-free, 8-10 week old lambs were each infected with 5,000 H. contortus, 15,000 O. circumcincta, 20,000 T. axei, 15,000 T. colubriformis and 15,000 N. spathiger larvae.
(§7) Doses of test compound A of 4 mg/kg animal body weight were then administered to each group of 2 animals, by the oral route, after 7 days or 25 days to examine the effects against the 4th larval stage and mature adult worms respectively, one group of 2 animals being left untreated as a control. All the lambs were killed for post-mortem worm wounts 28 days after infection. The activities, expressed in terms of the percentage reduction in mean worm burden of each worm species compared with the untreated control group, are given below in Table III.

[3] = Oral acute toxicity (LD50) in mice; settings: mouse, in vivo, observed during next 6 days
Excerpt: Mice were each treated orally with one of the compounds of formula I, and they were observed during the next 6 days. The LD50 figures obtained (doses lethal to 50% of mice tested) are shown in Table VII, expressed in mg/kg animal body weight.

Ostertagia ostertagi = assay: C.2 Activity against Ostertagia ostertagi in mature and immature stages in calves; assay type: in vivo; settings: s.c. 25 mg/kg (methanesulphonate salt)
Method: as §4

Dictyocaulus viviparus = assay: C.2 Activity against Dictyocaulus viviparus in mature and immature stages in calves; assay type: in vivo; settings: s.c. 25 mg/kg (methanesulphonate salt)
Method: as §4

[4] = test system: Nippostrongylus brasiliensis; assay: Activity against roundworms in rats, A.2: treatment 24 hours after infection, post-mortem worm counts; assay type: in vivo; settings: 144 h, treated 24 hours after infection, read-out: % Reduction of mean worm load
Method: In the Tables of results "s.c." means subcutaneous and the doses are expressed in mg/kg animal body weight. […] A.2. Rats were infected with 100 Nippostrongylus brasiliensis larvae each, by the subcutaneous route. After 24 hours the rats were randomised and allotted to groups of 5 animals each, ready for treatment. Doses of the test compound were then administered to each group by the oral or subcutaneous route, one group of 10 animals being left untreated as a control. All the rats were killed for post-mortem worm counts 6 days after dosing. The activities, expressed in terms of the percentage reduction in mean worm load of the treated groups compared with the untreated control group, are given below in Table II.

Trichostrongylus axei = assay: B.2 Activity against Trichostrongylus axei in 4th larval and adult stages in lambs; assay type: in vivo; settings: oral 4 mg/kg
Method: as §5, §6, §7

[5] = test system: Trichostrongylus colubriformis; assay: B.2 Activity against Trichostrongylus colubriformis in 4th larval and adult stages in lambs; assay type: in vivo; settings: oral 4 mg/kg
Method: as §5, §6, §7

Nematodirus spathiger [6] = assay: B.2 Activity against Nematodirus spathiger in 4th larval and adult stages in lambs; assay type: in vivo; settings: oral 4 mg/kg
Method: as §5, §6, §7

[7] = test system: Nippostrongylus brasiliensis; assay: Activity against roundworms in rats, A.1: treatment 6 days after infection (patent infection), post-mortem worm counts; assay type: in vivo; settings: 48 h, oral, 100 mg/kg, treated 6 days after infection, read-out: % Reduction of mean worm load
Method: In the Tables of results "s.c." means subcutaneous and the doses are expressed in mg/kg animal body weight. […] A.1. Rats were infected with 100 Nippostrongylus brasiliensis larvae each, by the subcutaneous route. After 6 days, when the infection was patent, the rats were randomised and allotted to groups of 5 animals each, ready for treatment. One group was used for each dose level of the test compound, which was administered by the oral or subcutaneous route, and in each experiment, one group of 10 animals was left untreated as a control. All the rats were killed for post-mortem worm counts 48 hours after treatment. The activities, expressed in terms of the percentage reduction in mean worm load of the treated groups compared with the untreated group, are shown in Table I.

Fasciola hepatica = assay: D. Activity against mature and immature liver flukes in sheep; assay type: in vivo; settings: oral 25 mg/kg in gelatin capsules
Method: D. Activity against mature and immature liver flukes in sheep On the first day of the experiment a group of sheep were each infected with 300 metacercariae of liver fluke Fasciola hepatica and on the 56th day they were each infected with a further 300 metacercariae of F. hepatica. On day 70 of the experiment, doses of the test compounds of 25 mg/kg animal body weight were administered orally in gelatin capsules to groups of two animals per compound. One group of two animals was left untreated as controls. On day 98 of the experiment, all the sheep were killed. The number of mature flukes present in the bile ducts and the numbers of immature flukes present in the rest of the liver were counted. The activities, expressed in terms of the percentage reduction in mean fluke burdens compared with the untreated controls, are shown below in Table VI.

Haemonchus contortus [8] = assay: B.2 Activity against Haemonchus contortus in 4th larval and adult stages in lambs; assay type: in vivo; settings: oral 4 mg/kg
Method: as §5, §6, §7

[9] = treated 25 days after infection
[10] = treated at 7 days (4th larval stage)
[11] = treated at 25 days (mature adult worms)
[12] = sc, s.c. (methanesulphonate salt, aqueous)

## COC(=O)N=C1SCC(=O)N1c1ccc(Sc2ccccc2)cc1NC(=O)CN(C)C [Compound A, 3-[2-(2-dimethylaminoacetamido)-4-phenylthiophenyl]-2-methoxycarbonyliminothiazolidin-4-one]
Mycosphaerella pinodes
  MIC: < 2 µg/mL
Haemonchus contortus [1]
  reduction of the mean worm burden of H. contortus: 100%
Cooperia oncophora; treated 7 days after infection
  % Reduction of mean worm burdens, C. oncophora: 100%
Cooperia oncophora; [9]
  % Reduction of mean worm burdens, C. oncophora: 100%
Nematodirus spathiger [2]
  reduction of the mean worm burden of N. spathiger: 99%
Ostertagia circumcincta; [10]
  Percentage reduction in mean worm burdens, O. circumcincta: 99%
Ostertagia circumcincta; [11]
  Percentage reduction in mean worm burdens, O. circumcincta: 100%
[3]
  LD50 at 144 h: ~1000 mg/kg
Ostertagia ostertagi; treated 7 days after infection
  % Reduction of mean worm burdens, O. ostertagi: 97%
Ostertagia ostertagi; [9]
  % Reduction of mean worm burdens, O. ostertagi: 100%
Dictyocaulus viviparus; treated 7 days after infection
  % Reduction of mean worm burdens, D. viviparus: 83%
Dictyocaulus viviparus; [9]
  % Reduction of mean worm burdens, D. viviparus: 82%
[4]; oral
  inhibition in vivo at 12.5 mg/kg: 85%
  inhibition in vivo at 50 mg/kg: 99%
[4]; [12]
  inhibition in vivo at 12.5 mg/kg: 91%
  inhibition in vivo at 50 mg/kg: 99%
Trichostrongylus axei; [10]
  Percentage reduction in mean worm burdens, T. axei: 100%
Trichostrongylus axei; [11]
  Percentage reduction in mean worm burdens, T. axei: 100%
[5]; [10]
  Percentage reduction in mean worm burdens, T. colubriformis: 100%
[5]; [11]
  Percentage reduction in mean worm burdens, T. colubriformis: 100%
Nematodirus spathiger [6]; [10]
  Percentage reduction in mean worm burdens, N. spathiger: 95%
Nematodirus spathiger [6]; [11]
  Percentage reduction in mean worm burdens, N. spathiger: 97%
[7]
  inhibition in vivo at 100 mg/kg: 99%
Fasciola hepatica; immature flukes in rest of liver
  Mean % Reduction, Immature flukes: 29%
Fasciola hepatica; mature flukes in bile ducts
  Mean % Reduction, Mature flukes: 93%
Haemonchus contortus [8]; [10]
  Percentage reduction in mean worm burdens, H. contortus: 100%
Haemonchus contortus [8]; [11]
  Percentage reduction in mean worm burdens, H. contortus: 100%
